Laboratory results as given in patent US5644053A, “Penam derivatives” (Hoffmann-La Roche Inc., priority 1994, dated 1997).
Like-named read-outs stand apart in the source and are kept apart here.

What was measured:
β-lactamase [1] = type: biochemical; conditions: read-out: IC50 E. coli CF 102 (β-lactamase inhibition)
Description: Various β-lactamases can be isolated from penicillin- or cephalosporin-resistant bacterial strains such as Klebsiella pneumonia NCTC 418, Proteus vulgaris 1028, Bacillus licheniformis 749/C, Escherichia coil SN01 and Citrobacter freundii 1203. For this purpose, the corresponding strains are cultivated in Tryptic Soy Broth (Difco) and harvested by centrifugation in the last logarithmic growth phase (when necessary 50-100 mg/l of ampicillin are added to the medium towards the end of the log-phase in order to induce the β-lactamase). The thus-obtained bacterial mass is treated with 20 mM Tris-HCl buffer (pH 7.0); the cells are broken open with a French press while cooling. The mixture is centrifuged (20,000 r/min.) for 20-30 minutes and a clear crude extract is obtained.
(§4) The determination of the activity of the isolated β-lactamases can be carried out according to the method of O'-Callaghan, C. […] The requisite test batch contains per ml of water: 50 mM phosphate buffer (pH 7.0), 0.1 mM nitrocefin and sufficient enzyme (β-lactamase) to achieve a ΔA/min. of about 0.1.
(§5) The determination of the IC50 was effected by means of a graph.

β-lactamase [2] = target: β-lactamase (Citrobacter freundii, UniProt P05193); conditions: read-out: IC50 C. freundii 1982 (β-lactamase inhibition)
Description: For this purpose, the corresponding strains are cultivated in Tryptic Soy Broth (Difco) and harvested by centrifugation in the last logarithmic growth phase (when necessary 50-100 mg/l of ampicillin are added to the medium towards the end of the log-phase in order to induce the β-lactamase). The thus-obtained bacterial mass is treated with 20 mM Tris-HCl buffer (pH 7.0); the cells are broken open with a French press while cooling. The mixture is centrifuged (20,000 r/min.) for 20-30 minutes and a clear crude extract is obtained.
as §4, §5

E. cloacae = test: In vitro activity of combinations with selected antibiotics against β-lactamase over-producer strains, E. cloacae; type: cell-based; conditions: β-lactamase over-producer strain; combinations: constant inhibitor concentration 4 mg/l; unit assumed
Description: (§1) In vitro activity of combinations of Example 5c with selected
(§2) antibiotics against β-lactamase over-producer strains
(§3) (constant inhibitor concentration: 4 mg/l)

C. freundii = test: In vitro activity of combinations with selected antibiotics against β-lactamase over-producer strains, C. freundii; type: cell-based; conditions: β-lactamase over-producer strain; combinations: constant inhibitor concentration 4 mg/l; unit assumed
Description: as §1, §2, §3

Ps. aeruginosa = test: In vitro activity of combinations with selected antibiotics against β-lactamase over-producer strains, Ps. aeruginosa; type: cell-based; conditions: β-lactamase over-producer strain; combinations: constant inhibitor concentration 4 mg/l; unit assumed
Description: as §1, §2, §3

E. coli = test: In vitro activity of combinations with selected antibiotics against β-lactamase over-producer strains, E. coli; type: cell-based; conditions: β-lactamase over-producer strain; combinations: constant inhibitor concentration 4 mg/l; unit assumed
Description: as §1, §2, §3

[3] = isolated enzyme, nitrocefin substrate, pH 7.0, 37° C., 15 min pre-incubation

Chain of β-lactamase (Citrobacter freundii, UniProt P05193) (P05193 21-381): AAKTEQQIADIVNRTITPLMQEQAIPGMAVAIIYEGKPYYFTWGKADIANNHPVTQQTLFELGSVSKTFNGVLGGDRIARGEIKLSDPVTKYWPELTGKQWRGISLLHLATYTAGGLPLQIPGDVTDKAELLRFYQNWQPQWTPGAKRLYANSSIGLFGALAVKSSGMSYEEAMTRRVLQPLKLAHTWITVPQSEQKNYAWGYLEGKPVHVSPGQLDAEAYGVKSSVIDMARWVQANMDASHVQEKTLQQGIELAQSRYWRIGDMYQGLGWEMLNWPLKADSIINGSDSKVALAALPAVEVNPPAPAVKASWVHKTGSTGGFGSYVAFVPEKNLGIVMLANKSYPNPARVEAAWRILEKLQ

CCOC(=O)/C=C/[C@@]1(C)[C@H](C(=O)O)N2C(=O)C[C@H]2S1(=O)=O [2c (trans ethyl ester), Sodium (E)-(2S,3S,5R)-3-(2-ethoxycarbonyl-vinyl)-3-methyl-4,4,7-trioxo-4-thia-1-aza-bicyclo[3.2.0]heptane-2-carboxylate]
IC50 (β-lactamase [1]; pH 7): 456 nM

C[C@]1(/C=C\C#N)[C@H](C(=O)O)N2C(=O)C[C@H]2S1(=O)=O [5c (cis nitrile), Sodium (Z)-(2S,3S,5R)-3-(2-cyanoethenyl)-3-methyl-4,4,7-trioxo-4-thia-1-aza-bicyclo [3.2.0]heptane-2-carboxylate]
IC50 (β-lactamase [1]; pH 7): 126 nM

C[C@]1(/C=C/C#N)[C@H](C(=O)O)N2C(=O)C[C@H]2S1(=O)=O [5c (trans nitrile), Sodium (E)-(2S,3S,5R)-3-(2-cyanoethenyl)-3-methyl-4,4,7-trioxo-4-thia-1-aza-bicyclo[3.2.0]heptane-2-carboxylate]
IC50 (β-lactamase [1]; pH 7): 681 nM

C[C@]1(/C=C\C(N)=O)[C@H](C(=O)O)N2C(=O)C[C@H]2S1(=O)=O [6c (cis amide), Sodium (Z)-(2S,3S,5R)-3-(2-carbamoyl-vinyl)-3-methyl-4,4,7-trioxo-4-thia-1-aza-bicyclo[3.2.0]heptane-2-carboxylate]
IC50 (β-lactamase [1]; pH 7): 130 nM | IC50 (β-lactamase [2]; [3]): 4340 nM

C[C@]1(/C=C/C(N)=O)[C@H](C(=O)O)N2C(=O)C[C@H]2S1(=O)=O [6c (trans amide), Sodium (E)-(2S,3S,5R)-3-(2-carbamoyl-vinyl)-3-methyl-4.4.7-trioxo-4-thia-1-azabicyclo[3.2.0]heptane-2-carboxylate]
IC50 (β-lactamase [1]; [3]): 54 nM | IC50 (β-lactamase [2]; [3]): 2250 nM

CC1(C)S[C@@H]2[C@H](NC(=O)[C@H](NC(=O)c3cnc4cccnc4c3O)c3ccccc3)C(=O)N2[C@H]1C(=O)O [Apalcillin]
MIC E. cloacae (E. cloacae): > 128 µg/mL | MIC C. freundii (C. freundii): > 128 µg/mL | MIC Ps. aeruginosa (Ps. aeruginosa): 64 µg/mL | MIC E. coli (E. coli): > 64 µg/mL

CC(C)(O/N=C(\C(=O)N[C@@H]1C(=O)N2C(C(=O)[O-])=C(C[n+]3ccccc3)CS[C@H]12)c1csc(N)n1)C(=O)O [Ceftazidime]
MIC E. cloacae (E. cloacae): > 64 µg/mL | MIC C. freundii (C. freundii): > 64 µg/mL | MIC Ps. aeruginosa (Ps. aeruginosa): 32 µg/mL | MIC E. coli (E. coli): 32 µg/mL

CO/N=C(\C(=O)N[C@@H]1C(=O)N2C(C(=O)O)=C(CSc3nc(=O)c(=O)[nH]n3C)CS[C@H]12)c1csc(N)n1 [Ceftriaxone]
MIC E. cloacae (E. cloacae): > 64 µg/mL | MIC C. freundii (C. freundii): 64 µg/mL | MIC Ps. aeruginosa (Ps. aeruginosa): > 64 µg/mL | MIC E. coli (E. coli): 16 µg/mL

CCN1CCN(C(=O)N[C@@H](C(=O)N[C@@H]2C(=O)N3[C@@H]2SC(C)(C)[C@@H]3C(=O)O)c2ccccc2)C(=O)C1=O [Piperacillin]
MIC E. cloacae (E. cloacae): > 128 µg/mL | MIC C. freundii (C. freundii): > 128 µg/mL | MIC Ps. aeruginosa (Ps. aeruginosa): > 64 µg/mL | MIC E. coli (E. coli): > 64 µg/mL

C[C@]1(Cn2ccnn2)[C@H](C(=O)O)N2C(=O)C[C@H]2S1(=O)=O [Tazobactam]
IC50 (β-lactamase [1]; [3]): 15 nM | IC50 (β-lactamase [2]; pH 7): 900 nM
